Data as given in patent US20260374766A1, “METHODS FOR TREATING CANCER” (Antares Therapeutics, Inc., priority 2022, published 2026).
pIC50, pKd: −log10 of the molar value. Read-outs that look alike come from different tables or passages of the source.

Columns and labels:
H1299 p53 R273H = experiment: Cell Proliferation Assay (CellTiter-Glo, CTG), H1299 p53 R273H (NClH1299-inducible p53 R273H); format: cell-based; conditions: Homo sapiens, NCI-H1299, 120 h, CellTiter-Glo, H1299 p53 R273H, 5 days
Outline: (§1)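 NClH1299 lines stably transduced with Tet-inducible p53 Y220C or R273H, plus NUGC3, were treated with compound for 5 days at 250-500 cells/well. IC50 derived from CellTiter-Glo luminescent signal after 10 min room-temperature incubation.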

p53 Y220C = p53 Y220C (Homo sapiens, UniProt P04637, Y220C); experiment: Luciferase Reporter Assay (Luc), p53 response element, NClH1299 cells with inducible p53 Y220C; format: cell-based; conditions: luciferase reporter, NClH1299 inducible p53 Y220C, 6 hour; for Emax: 10 uM tool compound as positive control; for AC50: read-out: Luc P53 Y220C AC50
Outline: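 Cells were seeded at 5,000 per well and induced with 0.5 ug/mL doxycycline for 24 hours, then exposed to compound for 6 hours. One-Glo reagent was added, plates shaken 5 minutes at room temperature, and luminescence read immediately.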

NUGC3 p53 Y220C = experiment: Cell Proliferation Assay (CellTiter-Glo, CTG), NUGC3 p53 Y220C; format: cell-based; conditions: Homo sapiens, NUGC-3, 120 h, CellTiter-Glo, NUGC3 p53 Y220C, 5 days
Outline: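 Tet-One inducible p53 Y220C or R273H constructs were stably introduced into NCI-H1299 by lentiviral transduction; NUGC3 was used as is. Cells (250-500 per well) were exposed to compound for 5 days, then CellTiter-Glo was added for 10 min at room temperature and IC50 was calculated from luminescence.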

H1299 p53 Y220C = experiment: Cell Proliferation Assay (CellTiter-Glo, CTG), H1299 p53 Y220C (NClH1299-inducible p53 Y220C); format: cell-based; conditions: Homo sapiens, NCI-H1299, 120 h, CellTiter-Glo, H1299 p53 Y220C, 5 days
Outline: as §1

[1] = biological target: T1, p53 Y220C mutant protein (amino acid residues 94-293) (Homo sapiens, UniProt P04637, Y220C); experiment: Thermal Shift Assay (TSA), dTM; format: binding; conditions: thermal shift; for ΔTm at 10 µM: 10 uM compound, read-out: TSA P53 Y220C dTM (10 uM); for ΔTm at 100 µM: 100 uM compound, read-out: TSA P53 Y220C dTM (100 uM)
T1 construct: p53 Y220C mutant protein (amino acid residues 94-293)
Outline: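 Sypro Orange melt (30→50 °C, 0.03 °C/s) with TM taken from a Boltzmann two-state fit. Protein (residues 94-293) at 5 μM was pre-incubated 3 h at 20 °C with compound at 10 μM or 100 μM in pH 7.4 HEPES/NaCl buffer containing 0.01% Pluronic F-127 and 1% DMSO.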

[2] = biological target: T1, p53 Y220C mutant protein (amino acid residues 94-293); experiment: Surface Plasmon Resonance (SPR) assay, Kd_kinetic; format: binding; conditions: read-out: SPR P53 Y220C KD kinetic
Outline: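 Biacore 8K SPR; 16 or 20 °C; Tris 50 mM pH 7.5, NaCl 100 mM, DTT 1 mM, Brij35 0.01%, Tween-20 0.05%, DMSO 1%. Kd_kinetic by 1:1 fit.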

SMILES | pIC50 (H1299 p53 R273H) | Emax (p53 Y220C) [%] | AC50 (p53 Y220C) [nM] | pIC50 (NUGC3 p53 Y220C) | pIC50 (H1299 p53 Y220C) | ΔTm at 10 µM [1] [°C] | ΔTm at 100 µM [1] [°C] | pKd ([2]; SPR, kinetic KD, p53 Y220C) | pKd [2]
CNC(=O)c1ccc(OC)c(NCC#Cc2nc3c(N[C@@H]4CCN(C)C[C@@H]4F)cc(F)cn3c2SC(F)(F)F)c1 [Example 154, 3-{[3-(6-fluoro-8-{[(3S,4R)-3-fluoro-1-methylpiperidin-4-yl]amino}-3-[(trifluoromethyl)sulfanyl]imidazo[1,2-a]pyridin-2-yl)prop-2-yn-1-yl]amino}-4-methoxy-N-methylbenzamide] | > 5.30 | 70 to 80 | < 750 | > 6.12 | > 6.12 | ≥ 10 | ≥ 10 | > 8.00 | –
CNC(=O)c1ccc(NCC#Cc2cc3c(N[C@@H]4CCN(C)C[C@@H]4F)nccn3c2SC(F)(F)F)c(OC)c1 [Example 155, 4-{[3-(1-{[(3S,4R)-3-fluoro-1-methylpiperidin-4-yl]amino}-6-[(trifluoromethyl)sulfanyl]pyrrolo[1,2-a]pyrazin-7-yl)prop-2-yn-1-yl]amino}-3-methoxy-N-methylbenzamide; formic acid] | 5.00 to 5.10 | > 90 | < 750 | > 6.12 | > 6.12 | ≥ 10 | ≥ 10 | – | > 8.00
CNC(=O)c1ccc(OC)c(NCC#Cc2cc3c(N[C@@H]4CCN(C)C[C@@H]4F)nccn3c2SC(F)(F)F)c1 [Example 156, 3-{[3-(1-{[(3S,4R)-3-fluoro-1-methylpiperidin-4-yl]amino}-6-[(trifluoromethyl)sulfanyl]pyrrolo[1,2-a]pyrazin-7-yl)prop-2-yn-1-yl]amino}-4-methoxy-N-methylbenzamide] | 5.00 to 5.10 | > 90 | < 750 | > 6.12 | > 6.12 | ≥ 10 | ≥ 10 | > 8.00 | –
CNC(=O)c1ccc(OC)c(NCC#Cc2nc3c(N[C@@H]4CCN(C)C[C@@H]4F)cccn3c2SC(F)(F)F)n1 [Example 158] | 5.10 to 5.30 | 80 to 90 | < 750 | > 6.12 | > 6.12 | ≥ 10 | ≥ 10 | – | > 8.00
CNC(=O)c1ccc(F)c(NCC#Cc2nc3c(N[C@@H]4CCN(C)C[C@@H]4F)cccn3c2SC(F)(F)F)c1 [Example 159] | ≤ 5.00 | > 90 | < 750 | > 6.12 | > 6.12 | ≥ 10 | – | > 8.00 | –
CNC(=O)c1ccc(C)c(NCC#Cc2nc3c(N[C@@H]4CCN(C)C[C@@H]4F)cccn3c2SC(F)(F)F)c1 [Example 160] | ≤ 5.00 | > 90 | < 750 | > 6.12 | > 6.12 | ≥ 10 | ≥ 10 | > 8.00 | –
CNC(=O)c1cnc(NCC#Cc2nc3c(N[C@@H]4CCN(C)C[C@@H]4F)cccn3c2SC(F)(F)F)n1C [Example 161] | ≤ 5.00 | < 70 | > 3000 | 5.52 to 5.82 | 5.52 to 5.82 | 5 to 10 | ≥ 10 | 7.00 to 8.00 | –
CNC(=O)c1cccc(NCC#Cc2nc3c(N[C@@H]4CCN(C)C[C@@H]4F)cccn3c2SC(F)(F)F)n1 [Example 162] | ≤ 5.00 | 80 to 90 | < 750 | > 6.12 | > 6.12 | ≥ 10 | ≥ 10 | > 8.00 | –
CNC(=O)c1ccc(NCC#Cc2nc3c(N[C@@H]4CCN(C)C[C@@H]4F)cccn3c2SC(F)(F)F)cc1 [Example 163] | ≤ 5.00 | > 90 | < 750 | > 6.12 | > 6.12 | ≥ 10 | ≥ 10 | > 8.00 | –
COc1cc(C(N)=O)ccc1NCC#Cc1nc2c(N[C@@H]3CCN(C)C[C@@H]3F)cccn2c1SC(F)(F)F [Example 165] | 5.00 to 5.10 | > 90 | < 750 | > 6.12 | > 6.12 | ≥ 10 | ≥ 10 | > 8.00 | –
COc1ccc(C(N)=O)nc1NCC#Cc1nc2c(N[C@@H]3CCN(C)C[C@@H]3F)cccn2c1SC(F)(F)F [Example 166] | ≤ 5.00 | 80 to 90 | < 750 | > 6.12 | > 6.12 | ≥ 10 | ≥ 10 | > 8.00 | –
CNC(=O)c1ccc(OC)c(NCC#Cc2nc3c(N[C@@H]4CCN(C)C[C@@H]4F)cccn3c2SC(F)F)c1 [Example 167] | > 5.30 | 80 to 90 | < 750 | > 6.12 | > 6.12 | ≥ 10 | ≥ 10 | > 8.00 | –
CNC(=O)c1ccc(NCC#Cc2nc3c(N[C@H]4CCN(C)C(=O)C4)cccn3c2SC(F)(F)F)c(OC)c1 [Example 168] | ≤ 5.00 | > 90 | 750 to 1500 | > 6.12 | > 6.12 | ≥ 10 | 5 to 10 | > 8.00 | –
CNC(=O)c1ccc(NCC#Cc2nc3c(N[C@@H]4CCN(C)C(=O)C4)cccn3c2SC(F)(F)F)c(OC)c1 [Example 169] | ≤ 5.00 | 70 to 80 | > 3000 | < 5.52 | < 5.52 | 5 to 10 | 5 to 10 | 7.00 to 8.00 | –
CNC(=O)c1cc(NCC#Cc2nc3c(N[C@@H]4CCN(C)C[C@@H]4F)cccn3c2SC(F)(F)F)c(OC)cc1F [Example 170] | ≤ 5.00 | 80 to 90 | < 750 | > 6.12 | > 6.12 | ≥ 10 | ≥ 10 | > 8.00 | –
CNC(=O)c1ccc(OC)c(NCC#Cc2nc3c(N[C@@H]4CN(C)C[C@@H]4F)cccn3c2SC(F)(F)F)n1 [Example 171] | ≤ 5.00 | 70 to 80 | < 750 | > 6.12 | > 6.12 | ≥ 10 | ≥ 10 | > 8.00 | –
CNC(=O)c1ccc(OC)c(NCC#Cc2nc3c(N[C@@H]4CNC[C@@H]4F)cccn3c2SC(F)(F)F)n1 [Example 172] | 5.10 to 5.30 | 70 to 80 | < 750 | > 6.12 | > 6.12 | ≥ 10 | ≥ 10 | > 8.00 | –
